Usually IC50 stands for the concentration that gives 50% inhibition.

Data set [1] deals with NIH3T3. As to the kind of experiment: Cytotoxicity against mouse NIH/3T3 cells after 56 to 60 hrs by MTT assay in presence of 3.5 nM of growth factor NT3. The class given is cell-based.
Data set [2] has as its system NIH3T3. As to the kind of experiment: Cytotoxicity against mouse NIH/3T3 cells after 56 to 60 hrs by MTT assay in presence of 20 uM of IY-IY-TEG. The class given is cell-based. (Tetrazolium assays rely on reduction of a dye to a coloured formazan, in cell work by metabolically active cells.)
The subject of data set [3] is NIH3T3. The data set is described as follows: Cytotoxicity against mouse NIH/3T3 cells expressing TrkC receptor after 56 to 60 hrs by MTT assay in presence of 20 uM of IY-IY-TEG. The class given is functional, cell-based.
The test system of another data set is 4T1. The data set is described as follows: Cytotoxicity against mouse 4T1 cells expressing TrkC receptor after 30 hrs by Calcein-AM assay. The class given is functional, cell-based. Conditions: 4T1, 30 h.
Data set [4] deals with NIH3T3. As to the kind of experiment: Cytotoxicity against mouse NIH/3T3 cells expressing TrkC receptor after 56 to 60 hrs by MTT assay in presence of 3.5 nM of growth factor NT3. The class given is functional, cell-based.
Data set [5] relates to NIH3T3. The data set is described as follows: Cytotoxicity against mouse NIH/3T3 cells after 56 to 60 hrs by MTT assay. The note with it: for IC50: Mus musculus, NIH3T3; for Activity: mouse, nih3t3. The class given is cell-based.
The subject of data set [6] is NIH3T3. The data set is described as follows: Cytotoxicity against mouse NIH/3T3 cells expressing TrkC receptor after 56 to 60 hrs by MTT assay. The class given is functional, cell-based.
A further data set deals with MCF7. As to the kind of experiment: Cytotoxicity against human MCF7 cells. The class given is functional, cell-based.
The nature of data set [7]: Cytotoxicity against CHO cells. The class given is cell-based, Cricetulus griseus. The note with it: chinese hamster, read-out: ED50 (the source's name).
Setting [8] is: Mus musculus, NIH3T3, read-out: IC50.

The structures appear in SMILES notation. Active and inactive are the calls of the source. The rule behind the calls is not given here.

For `CC[C@H](C)[C@H](N)c1cn([C@@H](Cc2ccc(O)cc2)C(=O)N2CCN(c3nc(NCCOCCOCCOCc4cn(CC#Cc5ccc(-c6c7ccc(=[N+]8CCCCC8)cc-7oc7cc(N8CCCCC8)ccc67)cc5)nn4)nc(N4CCN(C(=O)[C@H](Cc5ccc(O)cc5)n5cc([C@@H](N)[C@@H](C)CC)nn5)CC4)n3)CC2)nn1`, the Activity result in the data set on NIH3T3 [1] and with NIH3T3 [2] was “Toxic” each time. The outcome in the data set on NIH3T3 [3] and in the data set with NIH3T3 [4] was inactive. Besides, the half-inhibitory concentration (IC50) was 19.9 µM in the data set with 4T1, 27.6 µM in the data set with NIH3T3 [5] and 15.8 µM with NIH3T3 [6] (setting [8]).

Take `CC[C@H](C)[C@H](N)c1cn([C@@H](Cc2ccc(O)cc2)C(=O)N2CCN(c3nc(NCCOCCOCCOCc4cn(CCOCCOCCn5cnc6c(=S)nc[nH]c65)nn4)nc(N4CCN(C(=O)[C@H](Cc5ccc(O)cc5)n5cc([C@@H](N)[C@@H](C)CC)nn5)CC4)n3)CC2)nn1`: the Activity entry in the data set on NIH3T3 [5] is on record as “Non-toxic”. Further, the IC50 entry in the data set on NIH3T3 [6] (nih3t3) was “Active”.

With `CN(C)c1ccc2c(-c3ccccc3)c3ccc(N(C)C)cc3[o+]c2c1` [ROSAMINE], the IC50 with MCF7 worked out at 0.39 µM.

`Sc1ncnc2nc[nH]c12` [MERCAPTOPURINE ANHYDROUS]: in data set [7], the CC50 was found to be 50 µM. The same molecule registered an IC50 with MCF7 of 2.79 µM.

For the molecule `CC[C@H](C)[C@@H](C(=O)N1CCN(c2nc(NCCOCCOCCOCc3cn(CC#Cc4ccc(-c5c6ccc(=[N+]7CCCCC7)cc-6oc6cc(N7CCCCC7)ccc56)cc4)nn3)nc(N3CCN(C(=O)[C@H]([C@@H](C)CC)n4cc([C@@H](N)Cc5ccc(O)cc5)nn4)CC3)n2)CC1)n1cc([C@@H](N)Cc2ccc(O)cc2)nn1`, the Activity result in the data set on NIH3T3 [1] and in the data set on NIH3T3 [2] was “Toxic” each time. The result in the data set with NIH3T3 [3] and in the data set on NIH3T3 [4] was Active. Moreover, the 50% inhibitory concentration (IC50) in the data set with NIH3T3 [5] and with NIH3T3 [6] (setting [8]) was 25.8 µM each time.

`CCn1cnc2c(=S)nc[nH]c21`: in data set [7], the CC50 amounted to 600 µM.

For the molecule `CCCCn1cnc2c(=S)nc[nH]c21`, the CC50 in data set [7] was 400 µM.

Turning to `C#CCOCCOCCOCCNc1nc(N2CCN(C(=O)[C@H](Cc3ccc(O)cc3)n3cc([C@@H](N)[C@@H](C)CC)nn3)CC2)nc(N2CCN(C(=O)[C@H](Cc3ccc(O)cc3)n3cc([C@@H](N)[C@@H](C)CC)nn3)CC2)n1`, the Activity entry with NIH3T3 [5] is “Non-toxic”. Moreover, the IC50 entry in the data set on NIH3T3 [6] (nih3t3) was “Not Active”.

For the molecule `S=c1nc[nH]c2c1ncn2CCOCCOCCn1cc(COCCOCCOCCNc2nc(N3CCOCC3)nc(N3CCOCC3)n2)nn1`, in the data set on NIH3T3 [5], the Activity result is “Non-toxic”. In addition, the IC50 result in the data set with NIH3T3 [6] (nih3t3) is recorded as “Not Active”.

The values are drawn from ChEMBL document CHEMBL2203166, “Small Molecule Ligands For Active Targeting Of TrkC-expressing Tumor Cells” (ACS Med Chem Lett, 2012).
